In patent US10208033B2, “β-carboline, dihydro-β-carboline and tetrahydro-β-carboline alkaloid derivatives and preparation methods same and use in aspects of preventing and treating plant viruses, fungicides and insecticides” (NANKAI UNIVERSITY, priority 2013, dated 2019):
Where two headings read alike, the source gives them in different places.

Legend:
Phytophthora capsici = assay: Fungicidal (bactericidal) activity in vitro, PDA colony diameter; format: cell-based; details: 50 mg/kg
Fusarium fujikuroi = assay: as above; format: cell-based; details: 50 mg/kg
[1] = tested on: tobacco mosaic virus (TMV); assay: Anti-TMV in vivo protective effect; design: species or system tobacco mosaic virus (host Nicotiana tabacum L.cv.Xanthi NN)
[2] = tested on: tobacco mosaic virus (TMV); assay: Anti-TMV in vivo inactivation; design: species or system tobacco mosaic virus (host Nicotiana tabacum L.cv.Xanthi NN)
Sclerotinia scleotiorum = assay: Fungicidal (bactericidal) activity in vitro, PDA colony diameter; format: cell-based; details: 50 mg/kg
Alternaria solani = assay: as above; format: cell-based; details: 50 mg/kg
Botrytis cinerea = assay: as above; format: cell-based; details: 50 mg/kg
[3] = tested on: tobacco mosaic virus (TMV); assay: Anti-TMV in vitro effect (half-leaf soaking); format: cell-based, tobacco mosaic virus (host Nicotiana tabacum L.cv.Xanthi NN)
Macrophoma kawatsukai = assay: Fungicidal (bactericidal) activity in vitro, PDA colony diameter; format: cell-based; details: 50 mg/kg
Rhizoctonia cereali = assay: as above; format: cell-based; details: 50 mg/kg
Rhizoctonia solani = assay: Fungicidal (bactericidal) activity in vitro, PDA colony diameter; format: cell-based; details: 50 mg/kg
mosquito larvae = assay: whole plant or invertebrate
Procedure, shortened: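 Early fourth-instar Culex pipiens pallens larvae from an indoor colony, 10 per beaker, exposed to test compound at 5 ppm in water, diluted from a 1000 ppm acetone mother solution. Blank: water containing 0.5 mL test solvent.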

Cercospora arachidicola = assay: Fungicidal (bactericidal) activity in vitro, PDA colony diameter; format: cell-based; details: 50 mg/kg
cucumber fusarium wilt = assay: as above; format: cell-based
Bipolaria maydis = assay: organism not typed; format: cell-based; details: 50 mg/kg
[4] = tested on: tobacco mosaic virus (TMV); assay: Anti-TMV in vivo therapeutic effect; design: species or system tobacco mosaic virus (host Nicotiana tabacum L.cv.Xanthi NN)
Fusarium graminearumt = assay: microbe, parasite or virus in culture; format: cell-based; details: 50 mg/kg
armyworms = format: in vivo; details: concentration 600 mg/kg
cotton bollworms = assay: whole plant or invertebrate
Description: Experimental method of cotton bollworms: feed and drug mixing method: measure 3 mL of prepared solution and add it to about 27 g of newly prepared feed, thereby obtaining needed concentration through dilution by 10 times.

potato late blight = assay: microbe, parasite or virus in culture; format: cell-based
[5] = tested on: Colletotrichum orbiculare; assay: Fungicidal (bactericidal) activity in vitro, PDA colony diameter; format: cell-based; details: 50 mg/kg

C[C@@H]1N[C@H](C(=O)NN=Cc2ccccn2)Cc2c1[nH]c1ccccc21 [Ic-17, (1S, 3S)—N′-(pyridine-2-methylene)-1-methyl-2,3,4,9-tetrahydropyridino [3,4-b] indol-3-formylhydrazine]
Bactericidal activity (%) Phytophthora capsici (Phytophthora capsici): 18.4% | Bactericidal activity (%) Fusarium fujikuroi (Fusarium fujikuroi): 21.4% | Relative inhibition rate (%) In vivo protection ([1]; treatment dose 100 μg/mL): 0% | Relative inhibition rate (%) In vivo protection ([1]; treatment dose 500 μg/mL): 31.4% | Relative inhibition rate (%) In vivo inactivation ([2]; treatment dose 100 μg/mL): 9.2% | Relative inhibition rate (%) In vivo inactivation ([2]; treatment dose 500 μg/mL): 38.9% | Bactericidal activity (%) Sclerotinia scleotiorum (Sclerotinia scleotiorum): 5.9% | Bactericidal activity (%) Alternaria solani (Alternaria solani): 20.0% | Bactericidal activity (%) Botrytis cinerea (Botrytis cinerea): 36.4% | Relative inhibition rate (%) In vitro activity ([3]; treatment dose 100 μg/mL): 0% | Relative inhibition rate (%) In vitro activity ([3]; treatment dose 500 μg/mL): 32.7% | Bactericidal activity (%) Macrophoma kawatsukai (Macrophoma kawatsukai): 75.0% | Bactericidal activity (%) Rhizoctonia cereali (Rhizoctonia cereali): 41.2% | Corn borer Mortality (%) (corn borers; in vivo): 20% | Bactericidal activity (%) Rhizoctonia solani (Rhizoctonia solani): 21.1% | Mosquito larvae Mortality (%) (mosquito larvae; in vivo): 50% | Bactericidal activity (%) Cercospora arachidicola (Cercospora arachidicola): 23.5% | Bactericidal activity (%) Cucumber fusarium wilt (cucumber fusarium wilt; 50 mg/kg): 23.1% | Bactericidal activity (%) Bipolaria maydis (Bipolaria maydis): 16.0% | Relative inhibition rate (%) In vivo therapy ([4]; treatment dose 100 μg/mL): 0% | Relative inhibition rate (%) In vivo therapy ([4]; treatment dose 500 μg/mL): 36.8% | Bactericidal activity (%) Fusarium graminearumt (Fusarium graminearumt): 20.7% | Armyworm Mortality (%) (armyworms): 25% | Cotton bollworm Mortality (%) (cotton bollworms; in vivo): 20% | Bactericidal activity (%) potato late blight (potato late blight): 12.0% | Bactericidal activity (%) Colletotrichum orbiculare [5]: 25.9%

C[C@@H]1N[C@H](C(=O)NN=Cc2ccco2)Cc2c1[nH]c1ccccc21 [Ic-18, (1S, 3S)—N′-(furan-2-methylene)-1-methyl-2,3,4,9-tetrahydropyridino [3,4-b] indol-3-formylhydrazine]
Bactericidal activity (%) Phytophthora capsici (Phytophthora capsici): 39.5% | Bactericidal activity (%) Fusarium fujikuroi (Fusarium fujikuroi): 28.6% | Relative inhibition rate (%) In vivo protection ([1]; treatment dose 100 μg/mL): 11.5% | Relative inhibition rate (%) In vivo protection ([1]; treatment dose 500 μg/mL): 47.5% | Relative inhibition rate (%) In vivo inactivation ([2]; treatment dose 100 μg/mL): 18.2% | Relative inhibition rate (%) In vivo inactivation ([2]; treatment dose 500 μg/mL): 54.6% | Bactericidal activity (%) Sclerotinia scleotiorum (Sclerotinia scleotiorum): 64.7% | Bactericidal activity (%) Alternaria solani (Alternaria solani): 35.0% | Bactericidal activity (%) Botrytis cinerea (Botrytis cinerea): 81.8% | Relative inhibition rate (%) In vitro activity ([3]; treatment dose 100 μg/mL): 15.4% | Relative inhibition rate (%) In vitro activity ([3]; treatment dose 500 μg/mL): 48.8% | Bactericidal activity (%) Macrophoma kawatsukai (Macrophoma kawatsukai): 69.4% | Bactericidal activity (%) Rhizoctonia cereali (Rhizoctonia cereali): 68.6% | Corn borer Mortality (%) (corn borers; concentration 600 mg/kg): 15% | Bactericidal activity (%) Rhizoctonia solani (Rhizoctonia solani): 32.9% | Mosquito larvae Mortality (%) (mosquito larvae; concentration 10 mg/kg, 24 h): 25% | Bactericidal activity (%) Cercospora arachidicola (Cercospora arachidicola): 52.9% | Bactericidal activity (%) Cucumber fusarium wilt (cucumber fusarium wilt): 11.5% | Bactericidal activity (%) Bipolaria maydis (Bipolaria maydis): 20.0% | Relative inhibition rate (%) In vivo therapy ([4]; treatment dose 100 μg/mL): 9.3% | Relative inhibition rate (%) In vivo therapy ([4]; treatment dose 500 μg/mL): 44.2% | Bactericidal activity (%) Fusarium graminearumt (Fusarium graminearumt): 6.9% | Armyworm Mortality (%) (armyworms): 10% | Cotton bollworm Mortality (%) (cotton bollworms; concentration 600 mg/kg): 20% | Bactericidal activity (%) potato late blight (potato late blight): 36.0% | Bactericidal activity (%) Colletotrichum orbiculare [5]: 33.3%

C[C@@H]1N[C@H](C(=O)NN=Cc2ncc[nH]2)Cc2c1[nH]c1ccccc21 [Ic-21, (1S, 3S)—N′-(imidazole-2-methylene)-1-methyl-2,3,4,9-tetrahydropyridino [3,4-b] indol-3-formylhydrazine]
Bactericidal activity (%) Phytophthora capsici (Phytophthora capsici): 18.4% | Bactericidal activity (%) Fusarium fujikuroi (Fusarium fujikuroi): 28.6% | Relative inhibition rate (%) In vivo protection ([1]; treatment dose 100 μg/mL): 18.5% | Relative inhibition rate (%) In vivo protection ([1]; treatment dose 500 μg/mL): 48.1% | Relative inhibition rate (%) In vivo inactivation ([2]; treatment dose 100 μg/mL): 21.3% | Relative inhibition rate (%) In vivo inactivation ([2]; treatment dose 500 μg/mL): 49.6% | Bactericidal activity (%) Sclerotinia scleotiorum (Sclerotinia scleotiorum): 35.3% | Bactericidal activity (%) Alternaria solani (Alternaria solani): 15.0% | Bactericidal activity (%) Botrytis cinerea (Botrytis cinerea): 36.4% | Relative inhibition rate (%) In vitro activity ([3]; treatment dose 100 μg/mL): 0% | Relative inhibition rate (%) In vitro activity ([3]; treatment dose 500 μg/mL): 42.4% | Bactericidal activity (%) Macrophoma kawatsukai (Macrophoma kawatsukai): 97.2% | Bactericidal activity (%) Rhizoctonia cereali (Rhizoctonia cereali): 64.7% | Corn borer Mortality (%) (corn borers; concentration 600 mg/kg): 35% | Bactericidal activity (%) Rhizoctonia solani (Rhizoctonia solani): 15.8% | Mosquito larvae Mortality (%) (mosquito larvae; concentration 10 mg/kg, 24 h): 85% | Bactericidal activity (%) Cercospora arachidicola (Cercospora arachidicola): 47.1% | Bactericidal activity (%) Cucumber fusarium wilt (cucumber fusarium wilt; 50 mg/kg): 34.6% | Bactericidal activity (%) Bipolaria maydis (Bipolaria maydis): 12.0% | Relative inhibition rate (%) In vivo therapy ([4]; treatment dose 100 μg/mL): 12.6% | Relative inhibition rate (%) In vivo therapy ([4]; treatment dose 500 μg/mL): 45.3% | Bactericidal activity (%) Fusarium graminearumt (Fusarium graminearumt): 27.6% | Armyworm Mortality (%) (armyworms): 40% | Cotton bollworm Mortality (%) (cotton bollworms; concentration 600 mg/kg): 45% | Bactericidal activity (%) potato late blight (potato late blight): 24.0% | Bactericidal activity (%) Colletotrichum orbiculare [5]: 25.9%

C/C=C/C=NNC(=O)[C@@H]1Cc2c([nH]c3ccccc23)[C@H](C)N1 [Ic-22, (1S, 3S)—N′-((E)-but-2-enylidene)-1-methyl-2,3,4,9-tetrahydropyridino [3,4-b] indol-3-formylhydrazine]
Bactericidal activity (%) Phytophthora capsici (Phytophthora capsici): 31.6% | Bactericidal activity (%) Fusarium fujikuroi (Fusarium fujikuroi): 14.3% | Relative inhibition rate (%) In vivo protection ([1]; treatment dose 100 μg/mL): 6.7% | Relative inhibition rate (%) In vivo protection ([1]; treatment dose 500 μg/mL): 37.1% | Relative inhibition rate (%) In vivo inactivation ([2]; treatment dose 100 μg/mL): 8.5% | Relative inhibition rate (%) In vivo inactivation ([2]; treatment dose 500 μg/mL): 47% | Bactericidal activity (%) Sclerotinia scleotiorum (Sclerotinia scleotiorum): 41.2% | Bactericidal activity (%) Alternaria solani (Alternaria solani): 30.0% | Bactericidal activity (%) Botrytis cinerea (Botrytis cinerea): 40.9% | Relative inhibition rate (%) In vitro activity ([3]; treatment dose 100 μg/mL): 0% | Relative inhibition rate (%) In vitro activity ([3]; treatment dose 500 μg/mL): 35.2% | Bactericidal activity (%) Macrophoma kawatsukai (Macrophoma kawatsukai): 52.8% | Bactericidal activity (%) Rhizoctonia cereali (Rhizoctonia cereali): 64.7% | Corn borer Mortality (%) (corn borers; concentration 600 mg/kg): 50% | Bactericidal activity (%) Rhizoctonia solani (Rhizoctonia solani): 6.6% | Mosquito larvae Mortality (%) (mosquito larvae; concentration 10 mg/kg, 24 h): 85% | Bactericidal activity (%) Cercospora arachidicola (Cercospora arachidicola): 29.4% | Bactericidal activity (%) Cucumber fusarium wilt (cucumber fusarium wilt; 50 mg/kg): 26.9% | Bactericidal activity (%) Bipolaria maydis (Bipolaria maydis): 36.0% | Relative inhibition rate (%) In vivo therapy ([4]; treatment dose 100 μg/mL): 0% | Relative inhibition rate (%) In vivo therapy ([4]; treatment dose 500 μg/mL): 33.2% | Bactericidal activity (%) Fusarium graminearumt (Fusarium graminearumt): 20.7% | Armyworm Mortality (%) (armyworms): 40% | Cotton bollworm Mortality (%) (cotton bollworms; concentration 600 mg/kg): 20% | Bactericidal activity (%) potato late blight (potato late blight): 32.0% | Bactericidal activity (%) Colletotrichum orbiculare [5]: 22.2%
